Experimental data as given in US12552826B2, “PRMT5 inhibitors” (Merck Sharp & Dohme LLC, priority 2018, dated 2026).

Biological target: T1, PRMT5 (Homo sapiens, UniProt O14744)
T1 construct: endogenous in cells; host or cells: MCF-7
Experiment: PRMT5 Cell Target Engagement (TE) Assay
Type: cell-based
Conditions: MCF-7 cells, 3 days treatment, nuclear SDMA by high content imaging
Description: The PRMT5 TE assay is a biomarker assay for identifying compounds that inhibit symmetric dimethylation of arginine (SDMA) of PRMT5 substrates. The following substrates have been reported for PRMT5: Histone H2A and H4 R3, Histone H3 R2, Histone H3 R8, spliceosome Sm proteins, ribosomal protein RPS10, p53, FEN1, nucleoplasmin, nucleolin, EGFR and EBNA. The assay will focus on detecting symmetrically dimethylated nuclear proteins using high content imaging technology. Detection of the expression of symmetrically dimethylated nuclear proteins is through a mixture of primary rabbit monoclonal antibodies to SDMA (CST 13222), which in turn recognized by an Alexafluor 488 dye-conjugated anti-rabbit IgG secondary antibody. The IN Cell Analyzer 2200 or Opera-Phenix measures nuclear Alexafluor 488 fluorescent dye intensity that is directly related to the level of expression of symmetrically dimethylated nuclear proteins at the single cell level. Nuclear AF488 dye intensities are compared to the mean value for DMSO treated cells (MIN) to report percent of inhibition for each compound-treated well.
In this assay, the cell potency (EC50) of each compound was determined from a ten point (1:3 serial dilution; top compound concentration of 10000 nM) titration curve using the following outlined procedure. Each well of a BD falcon collagen coated black/clear bottom 384-well plate was seeded with 4000 MCF-7 cells in 30 μl media and allowed to attach for 5 hours. Media is ATCC-formulated Eagle's Minimum Essential Medium, Catalog No. 30-2003. The following components were added to the base medium: 0.01 mg/mL human recombinant insulin; fetal bovine serum to a final concentration of 10%. Additional 30 μl of media containing 2× compounds were added to each well. Cells were treated for 3 days in 37° C. CO2 incubator. On day 3, cells were fixed with Cytofix, permeabilized with 0.4% Triton-X-100/Cytofix, and washed with D-PBS without Ca/Mg. Cells were blocked with Licor Odessey blocking reagent for 1 hour at room temperature, followed by incubation with anti-SDMA (1:1000) antibody at 4° C. overnight. 1° antibody was removed, followed by three washings with DPBS without Ca/Mg and 0.05% Tween20. Hoechst (5 μg/mL), Cell Mask deep stain (1:2000) and Alexa488-conjugated goat anti-rabbit IgG (2 μg/mL) was added for 1 hour at room temperature. A final washing step (three washes) was performed before sealing plate for imaging on In Cell Analyzer 2200 or Opera-Phenix. Images from analyzer were uploaded to Columbus for image analysis. IC50 values were determined by 4 parameters robust fit of percent fluorescence units vs. (Log10) compound concentrations.

T1 sequence (O14744 whole entry): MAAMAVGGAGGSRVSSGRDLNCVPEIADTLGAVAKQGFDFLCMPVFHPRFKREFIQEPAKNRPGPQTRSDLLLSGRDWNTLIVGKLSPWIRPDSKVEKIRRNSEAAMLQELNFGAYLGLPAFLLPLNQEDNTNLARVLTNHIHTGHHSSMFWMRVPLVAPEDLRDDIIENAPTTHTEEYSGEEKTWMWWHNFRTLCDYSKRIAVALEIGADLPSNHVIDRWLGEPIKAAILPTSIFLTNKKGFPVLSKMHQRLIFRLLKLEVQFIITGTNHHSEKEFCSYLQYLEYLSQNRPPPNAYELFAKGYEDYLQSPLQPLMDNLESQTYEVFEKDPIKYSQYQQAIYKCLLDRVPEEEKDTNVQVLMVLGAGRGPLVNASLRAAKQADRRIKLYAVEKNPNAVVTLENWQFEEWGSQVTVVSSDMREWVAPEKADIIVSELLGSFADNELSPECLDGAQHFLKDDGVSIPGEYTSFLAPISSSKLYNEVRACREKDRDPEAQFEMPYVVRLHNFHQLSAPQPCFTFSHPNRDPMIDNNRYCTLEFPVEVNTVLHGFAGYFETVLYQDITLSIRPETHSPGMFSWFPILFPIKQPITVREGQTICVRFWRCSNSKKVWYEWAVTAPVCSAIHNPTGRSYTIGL
T1 sequence (Q9BQA1 whole entry partner): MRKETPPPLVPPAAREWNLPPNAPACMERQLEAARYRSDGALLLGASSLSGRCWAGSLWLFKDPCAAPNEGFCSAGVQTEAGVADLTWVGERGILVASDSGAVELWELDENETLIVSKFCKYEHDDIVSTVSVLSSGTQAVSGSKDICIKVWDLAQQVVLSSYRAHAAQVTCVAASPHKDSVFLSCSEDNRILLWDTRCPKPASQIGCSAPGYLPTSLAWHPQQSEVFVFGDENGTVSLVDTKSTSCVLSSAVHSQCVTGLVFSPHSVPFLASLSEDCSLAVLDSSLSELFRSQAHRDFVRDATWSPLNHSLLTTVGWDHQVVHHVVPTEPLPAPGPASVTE

Row | SMILES | EC50 [nM]
1 | C[C@@]1(O)[C@@H]([C@@H](O)c2cc(C(F)F)ccn2)O[C@@H](n2ccc3c(N)ncnc32)[C@@H]1O [Example 73, 7-{(5S)-5-C-[4-(difluoromethyl)pyridin-2-yl]-3-C-methyl-beta-D-ribofuranosyl}-7H-pyrrolo[2,3-d]pyrimidin-4-amine] | > 10000
2 | COc1cccc([C@@H](O)[C@H]2O[C@@H](n3ccc4c(N)ncnc43)[C@H](O)[C@]2(C)O)c1 [Example 36, 7-[(5R)-5-C-(3-methoxyphenyl)-3-C-methyl-beta-D-ribofuranosyl]-7H-pyrrolo[2,3-d]pyrimidin-4-amine] | 997
3 | C[C@@]1(O)[C@@H]([C@H](O)c2cc(C(F)F)c(F)c3c2CNCC3)O[C@@H](n2ccc3c(N)ncnc32)[C@@H]1O [Example 8, (2R,3S,4R,5R)-5-(4-amino-7H-pyrrolo[2,3-d]pyrimidin-7-yl)-2-((R)-(6-(difluoromethyl)-5-fluoro-1,2,3,4-tetrahydroisoquinolin-8-yl)(hydroxy)methyl)-3-methyltetrahydrofuran-3,4-diol] | 65
4 | C[C@@]1(O)[C@@H]([C@@H](O)c2ccnc(C(F)F)c2)O[C@@H](n2ccc3c(N)ncnc32)[C@@H]1O [Example 79, 7-{(5S)-5-C-[2-(difluoromethyl)pyridin-4-yl]-3-C-methyl-beta-D-ribofuranosyl}-7H-pyrrolo[2,3-d]pyrimidin-4-amine] | > 10000
5 | C[C@]1(O)[C@@H](O)[C@H](n2ccc3c(N)ncnc32)O[C@@H]1[C@@](C)(O)c1ccnc(C(F)F)c1 [Example 81, 7-{6-deoxy-5-C-[2-(difluoromethyl)pyridin-4-yl]-3-C-methyl-beta-D-allofuranosyl}-7H-pyrrolo[2,3-d]pyrimidin-4-amine] | > 10000
6 | C[C@@]1(O)[C@@H]([C@@H](O)c2ccccc2)O[C@@H](n2ccc3c(N)ncnc32)[C@@H]1O [Example 12, 7-[(5S)-3-C-methyl-5-C-phenyl-beta-D-ribofuranosyl]-7H-pyrrolo[2,3-d]pyrimidin-4-amine] | > 10000
7 | C[C@@]1(O)[C@@H]([C@@H](O)c2ccc(F)c(F)c2F)O[C@@H](n2ccc3c(N)ncnc32)[C@@H]1O [Example 51, 7-[(5S)-3-C-methyl-5-C-(2,3,4-trifluorophenyl)-beta-D-ribofuranosyl]-7H-pyrrolo[2,3-d]pyrimidin-4-amine] | > 10000
8 | C[C@@]1(O)[C@@H]([C@@H](O)c2cc(C(F)F)c(F)c3c2CNCC3)O[C@@H](n2ccc3c(N)ncnc32)[C@@H]1O [Example 9, (2R,3S,4R,5R)-5-(4-amino-7H-pyrrolo[2,3-d]pyrimidin-7-yl)-2-((S)-(6-(difluoromethyl)-5-fluoro-1,2,3,4-tetrahydroisoquinolin-8-yl)(hydroxy)methyl)-3-methyltetrahydrofuran-3,4-diol] | 157
9 | C[C@@]1(O)[C@@H]([C@H](O)c2ccccc2)O[C@@H](n2ccc3c(N)ncnc32)[C@@H]1O [Example 11, 7-[(5R)-3-C-methyl-5-C-phenyl-beta-D-ribofuranosyl]-7H-pyrrolo[2,3-d]pyrimidin-4-amine] | 202
10 | Cc1cccc([C@@H](O)[C@H]2O[C@@H](n3ccc4c(N)ncnc43)[C@H](O)[C@]2(C)O)c1 [Example 38, 7-[(5R)-3-C-methyl-5-C-(3-methylphenyl)-beta-D-ribofuranosyl]-7H-pyrrolo[2,3-d]pyrimidin-4-amine] | 166
11 | C[C@@]1(O)[C@@H]([C@H](O)c2cccc(Cl)c2)O[C@@H](n2ccc3c(N)ncnc32)[C@@H]1O [Example 16, 7-[(5R)-5-C-(3-chlorophenyl)-3-C-methyl-beta-D-ribofuranosyl]-7H-pyrrolo[2,3-d]pyrimidin-4-amine] | 80
12 | C[C@@]1(O)[C@@H]([C@H](O)c2ccc(F)cc2Cl)O[C@@H](n2ccc3c(N)ncnc32)[C@@H]1O [Example 48, 7-[(5R)-5-C-(2-chloro-4-fluorophenyl)-3-C-methyl-beta-D-ribofuranosyl]-7H-pyrrolo[2,3-d]pyrimidin-4-amine] | > 10000
13 | COc1cccc([C@H](O)[C@H]2O[C@@H](n3ccc4c(N)ncnc43)[C@H](O)[C@]2(C)O)c1 [Example 37, 7-[(5S)-5-C-(3-methoxyphenyl)-3-C-methyl-beta-D-ribofuranosyl]-7H-pyrrolo[2,3-d]pyrimidin-4-amine] | > 10000
14 | C=C(c1cc(F)cc(C(F)F)c1)[C@H]1O[C@@H](n2ccc3c(N)ncnc32)[C@H](O)[C@]1(C)O [Example 82, (2R,3S,4R,5R)-5-(4-amino-7H-pyrrolo[2,3-d]pyrimidin-7-yl)-2-(1-(3-(difluoromethyl)-5-fluorophenyl)vinyl)-3-methyltetrahydrofuran-3,4-diol] | 280

The next lines start with the values.

Row | EC50 [nM] | SMILES
15 | 8960 | C[C@@]1(O)[C@@H]([C@@H](O)c2cc(F)cc(F)c2F)O[C@@H](n2ccc3c(N)ncnc32)[C@@H]1O [Example 53, 7-[(5S)-3-C-methyl-5-C-(2,3,5-trifluorophenyl)-beta-D-ribofuranosyl]-7H-pyrrolo[2,3-d]pyrimidin-4-amine]
16 | 34 | C[C@@]1(O)[C@@H]([C@H](O)c2cc(F)cc(Cl)c2)O[C@@H](n2ccc3c(N)ncnc32)[C@@H]1O [Example 26, 7-[(5R)-5-C-(3-chloro-5-fluorophenyl)-3-C-methyl-beta-D-ribofuranosyl]-7H-pyrrolo[2,3-d]pyrimidin-4-amine]
17 | 301 | C[C@@]1(O)[C@@H]([C@H](O)c2cc(F)cc(C(F)(F)F)c2)O[C@@H](n2ccc3c(N)ncnc32)[C@@H]1O [Example 58, 7-{(5R)-5-C-[3-fluoro-5-(trifluoromethyl)phenyl]-3-C-methyl-beta-D-ribofuranosyl}-7H-pyrrolo[2,3-d]pyrimidin-4-amine]
18 | 474 | C[C@@]1(O)[C@@H]([C@H](O)c2ccc(F)cc2)O[C@@H](n2ccc3c(N)ncnc32)[C@@H]1O [Example 24, 7-[(5R)-5-C-(4-fluorophenyl)-3-C-methyl-beta-D-ribofuranosyl]-7H-pyrrolo[2,3-d]pyrimidin-4-amine]
19 | > 10000 | C[C@@]1(O)[C@@H]([C@@H](O)c2cccc(C(F)(F)F)c2)O[C@@H](n2ccc3c(N)ncnc32)[C@@H]1O [Example 55, 7-{(5S)-3-C-methyl-5-C-[3-(trifluoromethyl)phenyl]-beta-D-ribofuranosyl}-7H-pyrrolo[2,3-d]pyrimidin-4-amine]
20 | 4 | C[C@]1(O)[C@@H](O)[C@H](n2ccc3c(N)ncnc32)O[C@@H]1[C@](C)(O)c1cc(F)cc(C(F)F)c1 [Example 66, 7-{6-deoxy-5-C-[3-(difluoromethyl)-5-fluorophenyl]-3-C-methyl-alpha-L-talofuranosyl}-7H-pyrrolo[2,3-d]pyrimidin-4-amine]
21 | > 10000 | C[C@@]1(O)[C@@H]([C@@H](O)c2cc(F)c(F)c(F)c2)O[C@@H](n2ccc3c(N)ncnc32)[C@@H]1O [Example 35, 7-[(5S)-3-C-methyl-5-C-(3,4,5-trifluorophenyl)-beta-D-ribofuranosyl]-7H-pyrrolo[2,3-d]pyrimidin-4-amine]
22 | 6.8 | C[C@@]1(O)[C@@H]([C@H](O)c2cc(F)cc(C(F)F)c2F)O[C@@H](n2ccc3c(N)ncnc32)[C@@H]1O [Example 6, (2R,3S,4R,5R)-5-(4-amino-7H-pyrrolo[2,3-d]pyrimidin-7-yl)-2-((R)-(3-(difluoromethyl)-2,5-difluorophenyl)(hydroxy)methyl)-3-methyltetrahydrofuran-3,4-diol]
